Our source for the IC50 values is PMC2880318 (Immunome Research, 2010).

Where a SMILES comes first, the peptide text is derived from it.

The test concerns the target purified HLA-DRB1*0101 (Homo sapiens, UniProt P01903+P01911, A100R/D57E/F55L/F60I/F76Y/I96L/L162R/M171V/P40L/Q125E/R42F/V115G/Y59C). As to the kind of experiment: biochemical. It counts as binding.
In the case of `CC[C@H](C)[C@H](NC(=O)[C@H](CC(=O)O)NC(=O)[C@H](CC(N)=O)NC(=O)[C@H](Cc1ccccc1)NC(=O)[C@@H](NC(=O)[C@H](CCCCN)NC(=O)[C@H](CCCNC(=N)N)NC(=O)[C@H](C)NC(=O)[C@H](CS)NC(=O)[C@H](CC(N)=O)NC(=O)[C@H](CCCNC(=N)N)NC(=O)[C@@H](NC(=O)[C@H](Cc1ccccc1)NC(=O)[C@H](CO)NC(=O)[C@@H](N)[C@@H](C)O)[C@@H](C)CC)C(C)C)C(=O)O` [MACV L1491-1505], the IC50 is 0.11 nM.
As for `CC(C)[C@H](NC(=O)[C@H](C)NC(=O)[C@H](Cc1c[nH]c2ccccc12)NC(=O)[C@H](Cc1ccccc1)NC(=O)[C@H](Cc1ccccc1)NC(=O)[C@H](CC(N)=O)NC(=O)[C@H](CCC(N)=O)NC(=O)[C@H](CC(N)=O)NC(=O)[C@@H](N)CC(N)=O)C(=O)N[C@@H](CCCCN)C(=O)N1CCC[C@H]1C(=O)N[C@@H](CCCCN)C(=O)N[C@H](C(=O)N[C@H](C(=O)N[C@@H](CCCNC(=N)N)C(=O)O)C(C)C)C(C)C` [MACV L1711-1725], the IC50 came to 1.7 nM. Against the preceding compound, the IC50 is about 15-fold higher.
With `CC(C)C[C@H](NC(=O)CNC(=O)[C@H](CC(C)C)NC(=O)[C@H](CO)NC(=O)[C@@H](NC(=O)[C@H](CC(C)C)NC(=O)[C@H](C)NC(=O)[C@H](CCC(N)=O)NC(=O)[C@@H](NC(=O)[C@@H](NC(=O)[C@H](CO)NC(=O)[C@@H](N)CC(N)=O)C(C)C)C(C)C)[C@@H](C)O)C(=O)N[C@@H](CC(C)C)C(=O)N[C@@H](Cc1ccc(O)cc1)C(=O)N[C@H](C(=O)O)[C@@H](C)O` [MACV NP191-205] the figure was 0.78 nM; with `CC(C)C[C@H](NC(=O)[C@H](CO)NC(=O)[C@@H]1CCCN1C(=O)[C@@H]1CCCN1C(=O)[C@H](C)NC(=O)[C@@H](NC(=O)[C@H](CCCNC(=N)N)NC(=O)[C@H](CCCNC(=N)N)NC(=O)[C@H](Cc1ccccc1)NC(=O)[C@H](CCC(=O)O)NC(=O)[C@H](C)NC(=O)[C@H](CO)NC(=O)[C@@H]1CCCN1)[C@@H](C)O)C(=O)N[C@@H](Cc1ccc(O)cc1)C(=O)NCC(=O)O` [MACV Z21-35] (H-PSAEFRRTAPPSLYG-OH), 2 nM; with `CC[C@H](C)[C@H](NC(=O)[C@H](CC(C)C)NC(=O)[C@H](CO)NC(=O)[C@@H](N)C(C)C)C(=O)N[C@@H](C)C(=O)N[C@@H](C)C(=O)N[C@@H](CC(C)C)C(=O)N[C@@H](CCCCN)C(=O)NCC(=O)N[C@@H](CCSC)C(=O)N[C@H](C(=O)N[C@@H](CC(N)=O)C(=O)N[C@@H](CC(C)C)C(=O)N[C@@H](Cc1c[nH]c2ccccc12)C(=O)N[C@@H](CCCCN)C(=O)O)[C@@H](C)CC` [SABV GPC26-40] (H-VSLIAALKGMINLWK-OH), 0.47 nM.
In the case of `CC(C)C[C@H](NC(=O)[C@H](Cc1ccccc1)NC(=O)[C@H](CC(C)C)NC(=O)[C@@H](NC(=O)[C@@H](NC(=O)[C@@H](NC(=O)[C@@H](N)Cc1ccccc1)[C@@H](C)O)[C@@H](C)O)[C@@H](C)O)C(=O)N[C@@H](Cc1c[nH]cn1)C(=O)N[C@@H](CC(C)C)C(=O)N[C@H](C(=O)NCC(=O)N[C@@H](Cc1ccccc1)C(=O)N1CCC[C@H]1C(=O)N[C@H](C(=O)N[C@@H](Cc1c[nH]cn1)C(=O)O)[C@@H](C)O)C(C)C` [SABV GPC436-450] (H-FTTTLFLHLVGFPTH-OH) it was 0.92 nM; in that of `CC[C@H](C)[C@H](NC(=O)[C@H](Cc1c[nH]cn1)NC(=O)[C@H](CCCNC(=N)N)NC(=O)[C@H](Cc1c[nH]cn1)NC(=O)[C@@H](NC(=O)[C@@H]1CCCN1C(=O)[C@H](Cc1ccccc1)NC(=O)CNC(=O)[C@@H](NC(=O)[C@H](CC(C)C)NC(=O)[C@H](Cc1c[nH]cn1)NC(=O)[C@H](CC(C)C)NC(=O)[C@@H](N)Cc1ccccc1)C(C)C)[C@@H](C)O)C(=O)N[C@@H](CCCNC(=N)N)C(=O)NCC(=O)O` [SABV GPC441-455] (H-FLHLVGFPTHRHIRG-OH), 0.09 nM; in that of `CC[C@H](C)[C@H](NC(=O)[C@@H](N)Cc1ccccc1)C(=O)N[C@H](C(=O)N[C@@H](Cc1ccccc1)C(=O)N[C@@H](CC(C)C)C(=O)N[C@@H](CC(C)C)C(=O)N[C@@H](CC(C)C)C(=O)N[C@@H](C)C(=O)NCC(=O)N[C@@H](CCCNC(=N)N)C(=O)N[C@@H](CO)C(=O)N[C@@H](CS)C(=O)N[C@@H](CO)C(=O)N[C@@H](Cc1ccc(O)cc1)C(=O)N[C@@H](CCCCN)C(=O)O)C(C)C` [WWAV GPC46-60] (H-FIVFLLLAGRSCSYK-OH), 1.2 nM.
With `CC[C@H](C)[C@H](NC(=O)[C@H](CC(C)C)NC(=O)[C@H](Cc1c[nH]cn1)NC(=O)[C@H](CC(=O)O)NC(=O)[C@H](CO)NC(=O)[C@H](CCC(=O)O)NC(=O)[C@H](CC(C)C)NC(=O)[C@H](CC(C)C)NC(=O)[C@H](Cc1c[nH]c2ccccc12)NC(=O)[C@H](CCC(N)=O)NC(=O)[C@H](CC(N)=O)NC(=O)[C@H](CCCNC(=N)N)NC(=O)[C@@H](N)Cc1ccccc1)C(=O)N[C@@H](CO)C(=O)N[C@@H](CCC(=O)O)C(=O)O` [WWAV GPC386-400] (H-FRNQWLLESDHLISE-OH) the figure was 1.6 nM.
